Experimental data taken from patent US20200289474A1, “METHODS OF TREATING PAIN WITH A THIAZOLINE ANTI-HYPERALGESIC” (priority 2019, published 2020).
Entries after “also recorded” stand apart in the source; their conditions may differ.

What was measured:
[1] = stability in plasma; type: in vitro ADME; conditions: dog plasma
[2] = test system: incision-induced hyperalgesia; assay: Brennan incisional model, prophylactic paradigm; type: in vivo, rat
Source text: Two incisional pain models were used to assess Compound 1 effects on hyperalgesia. The first model is referred to as the Brennan model in which, under anesthesia, a 1 cm longitudinal incision to the skin and underlying fascia of a rat hindpaw is made. The second is a variation but is a more invasive procedure in which the skin and muscle are spread apart using forceps which creates a longer-lasting hypersensitivity.
Using the Brennan protocol and a prophylactic paradigm, Compound 1 (3 doses given PO) or vehicle was administered 15 min prior to incision. At the 24-, 48-, and 72-h time points post-incision, mechanical thresholds were obtained (manual von Frey filament, using up/down method).
In a subsequent experiment, the same paradigm was used with Compound 1 administered at a dose of 30 mg/kg PO along with positive control group consisting of celecoxib (30 mg/kg PO), morphine (10 mg/kg SC), and vehicle.

[3] = test system: Caco-2 cells; assay: cytotoxicity by lactate dehydrogenase (LDH) release; type: cell-based
[4] = rat brain distribution study; type: in vivo
Source text: A rat brain distribution study performed in order to determine standard pharmacokinetic parameters and to assess the brain penetration properties of Compound 1 administered orally and intravenously. […] The compound distributed readily in tissues with a steady-state volume of distribution of 1.7 L/kg.

[5] = target: T1, BCRP (Homo sapiens, UniProt Q9UNQ0); assay: transporter inhibition, MDCKII-BCRP cells, prazosin transport; type: in vitro ADME
T1 construct: expressed in transfected cells
T1 sequence (Q9UNQ0 1-655): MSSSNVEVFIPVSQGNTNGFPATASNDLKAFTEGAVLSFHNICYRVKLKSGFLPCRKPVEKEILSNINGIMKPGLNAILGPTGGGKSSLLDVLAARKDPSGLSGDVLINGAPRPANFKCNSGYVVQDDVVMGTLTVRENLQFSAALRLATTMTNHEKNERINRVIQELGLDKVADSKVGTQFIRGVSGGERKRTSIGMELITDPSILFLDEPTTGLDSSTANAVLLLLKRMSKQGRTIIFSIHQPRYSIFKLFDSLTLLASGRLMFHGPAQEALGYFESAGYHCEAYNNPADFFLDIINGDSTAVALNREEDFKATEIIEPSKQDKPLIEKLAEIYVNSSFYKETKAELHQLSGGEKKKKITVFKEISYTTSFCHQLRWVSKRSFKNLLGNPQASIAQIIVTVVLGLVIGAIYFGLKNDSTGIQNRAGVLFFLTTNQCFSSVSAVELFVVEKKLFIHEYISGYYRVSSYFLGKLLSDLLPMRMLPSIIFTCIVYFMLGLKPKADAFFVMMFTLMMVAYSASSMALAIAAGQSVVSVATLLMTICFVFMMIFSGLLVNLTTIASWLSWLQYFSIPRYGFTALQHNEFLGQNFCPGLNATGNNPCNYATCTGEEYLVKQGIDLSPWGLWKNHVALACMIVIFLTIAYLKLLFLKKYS

[6] = test system: peroxynitrite (PN); assay: chemical-based assays of peroxynitrite (PN) oxidation; type: biochemical; conditions: chemical-based assay
[7] = test system: allodynia; assay: methylglyoxal-induced diabetic neuropathy model; type: in vivo; conditions: rat

## CC1(C)SC(Nc2ccccc2O)=N[C@@H]1C(=O)O.Cl [Compound 1, (R)-2-(2-hydroxyphenylamino)-5,5-dimethyl-4,5-dihydrothiazole-4-carboxylic acid mono-hydrochloride]
[1]
  stability in plasma: stable
[2]; 10 mg/kg PO single dose 15 min prior to incision, mono-hydrochloride
  hyperalgesia, effect relative to vehicle: statistically significant reversal of hyperalgesia; also recorded: statistically significant effect
[2]; 30 mg/kg PO single dose
  hyperalgesia, effect relative to vehicle: full efficacy
[2]; 3 doses PO, 15 min prior to incision, 24, 48, 72 h post-incision
  hyperalgesia, mechanical thresholds (von Frey) relative to vehicle: reversal of hyperalgesia in a dose-dependent manner
[3]
  cytotoxicity (LDH release): less than 25%
[4]; rat, in vivo, po, 30 mg/kg
  peak plasma concentration: 9 µg/mL
  time to peak plasma concentration: ≤ 1 h
[4]; rats
  steady-state volume of distribution: 1.7 L/kg
[4]; rats, 30 mg/kg oral dose
  oral bioavailability: 111%
  terminal half-life: 1.6 h
[4]; rats, 1 h after IV administration
  brain-to-plasma concentration ratio: 0.02
[5]
  inhibition: modestly inhibits
[6]
  PN-mediated oxidation of small-molecule organic substrates such as luminol: inhibits PN-mediated oxidation
[7]
  effect on allodynia, methylglyoxal-induced diabetic neuropathy: alleviates allodynia
